Source: patent publication US8440724B2, “Inhibiting neurotransmitter reuptake” (Mayo Foundation for Medical Education and Research, priority 2008, dated 2013)

Legend:
hSERT, hNET, hDAT = assay: Human transporter binding: rank order and range of potency over the three transporters; conditions: for Potency (rank-order of potency of binding; S = hSERT, N = hNET, D = hDAT): from KD values
From the text: The program was modified to calculate the Hill coefficient (nH). Data are presented as geometric mean±S.E.M. of at least three independent experiments. One-component models and two-component models were compared using the root mean square error of each fit and the F test.

CYP2D6 = biological target: T1, CYP2D6 (Homo sapiens, UniProt P10635); assay: CYP2D6 inhibition, CYP2D6/AMMC kit (BD Biosciences), fluorescent substrate; assay type: in vitro ADME
T1 construct: purchased BD Biosciences 459200
T1 sequence (P10635 whole entry): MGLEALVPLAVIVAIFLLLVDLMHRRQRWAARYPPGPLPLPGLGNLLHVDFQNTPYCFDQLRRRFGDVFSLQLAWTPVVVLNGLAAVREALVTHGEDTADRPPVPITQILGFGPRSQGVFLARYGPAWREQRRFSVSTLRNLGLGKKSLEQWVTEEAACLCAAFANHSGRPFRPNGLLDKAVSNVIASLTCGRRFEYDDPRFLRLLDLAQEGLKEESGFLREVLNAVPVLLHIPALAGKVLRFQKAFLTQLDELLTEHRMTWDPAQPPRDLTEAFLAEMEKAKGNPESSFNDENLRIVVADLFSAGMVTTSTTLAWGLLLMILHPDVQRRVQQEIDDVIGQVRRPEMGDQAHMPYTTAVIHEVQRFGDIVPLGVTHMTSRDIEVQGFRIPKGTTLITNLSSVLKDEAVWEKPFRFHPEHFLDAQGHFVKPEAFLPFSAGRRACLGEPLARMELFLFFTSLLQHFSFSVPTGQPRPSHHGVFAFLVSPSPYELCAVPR
From the text: This kit includes the use of a fluorescent P450 substrate (AMMC or 3-[2-(N,N-diethyl-N-methylamino)ethyl]-7-methoxy-4-methylcoumarin) and recombinant human P450.

hERG = hERG (Homo sapiens, UniProt Q12809); assay: hERG assay: block of rubidium ion (Rb+) efflux from cells expressing hERG
hERG, sequence (Q12809 whole entry): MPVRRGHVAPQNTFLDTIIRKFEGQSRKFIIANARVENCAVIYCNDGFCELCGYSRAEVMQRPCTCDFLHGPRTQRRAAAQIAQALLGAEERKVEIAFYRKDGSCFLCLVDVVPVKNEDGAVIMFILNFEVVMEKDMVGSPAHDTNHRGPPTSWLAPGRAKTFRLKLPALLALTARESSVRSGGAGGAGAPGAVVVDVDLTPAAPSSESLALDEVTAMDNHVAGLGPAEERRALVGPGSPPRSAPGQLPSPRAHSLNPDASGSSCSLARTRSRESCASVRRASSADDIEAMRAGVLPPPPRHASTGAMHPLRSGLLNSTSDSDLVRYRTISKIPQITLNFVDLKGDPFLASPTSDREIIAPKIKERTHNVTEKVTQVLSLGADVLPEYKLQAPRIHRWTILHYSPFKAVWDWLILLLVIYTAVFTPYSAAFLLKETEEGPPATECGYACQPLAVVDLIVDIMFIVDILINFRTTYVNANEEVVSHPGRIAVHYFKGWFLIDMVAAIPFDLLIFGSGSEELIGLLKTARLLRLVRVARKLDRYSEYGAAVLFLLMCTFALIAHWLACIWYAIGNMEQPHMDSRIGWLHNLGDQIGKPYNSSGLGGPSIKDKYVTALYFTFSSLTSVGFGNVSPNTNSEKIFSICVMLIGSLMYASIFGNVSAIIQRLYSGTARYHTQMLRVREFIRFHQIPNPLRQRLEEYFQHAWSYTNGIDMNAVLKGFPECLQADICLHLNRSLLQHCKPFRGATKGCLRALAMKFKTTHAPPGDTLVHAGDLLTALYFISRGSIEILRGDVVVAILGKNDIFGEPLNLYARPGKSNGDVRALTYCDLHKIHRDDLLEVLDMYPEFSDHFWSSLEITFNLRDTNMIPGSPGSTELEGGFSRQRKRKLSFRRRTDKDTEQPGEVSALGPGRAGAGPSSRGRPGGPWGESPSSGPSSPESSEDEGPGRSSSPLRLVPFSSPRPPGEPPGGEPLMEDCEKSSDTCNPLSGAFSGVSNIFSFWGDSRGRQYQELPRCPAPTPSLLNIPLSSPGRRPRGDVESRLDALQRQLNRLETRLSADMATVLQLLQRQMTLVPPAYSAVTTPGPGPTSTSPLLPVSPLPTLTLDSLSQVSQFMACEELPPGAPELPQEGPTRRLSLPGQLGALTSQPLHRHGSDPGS
Experimental: Human “ether-a-go-go” (hERG) is an ion channel. Blockade of this channel can be predictive of causing cardiac arrhythmias in humans. hERG assays were performed to measure the ability of a compound to block rubidium ion (Rb^+) efflux from cells expressing hERG. Cells were pre-loaded with Rb^+, incubated with test compound, and then exposed to a buffer that opens the channel and allows the efflux of ions. Compounds as powder were dissolved in 100% DMSO to prepare 100 mM stock solutions. […] The stocks were stored at 23° C.
The range of doses for the test compounds was 30 nM through 100,000 nM.

[1] = biological target: T2, rat serotonin transporter, synaptosomal preparations (Rattus norvegicus, UniProt P31652); assay: Inhibition of [3H]5-HT reuptake in rat brain synaptosomes (frontal cortex); assay type: biochemical
T2 construct: from tissue; host or cells: rat frontal cortex synaptosomes (male Sprague-Dawley)
T2 sequence (P31652 whole entry): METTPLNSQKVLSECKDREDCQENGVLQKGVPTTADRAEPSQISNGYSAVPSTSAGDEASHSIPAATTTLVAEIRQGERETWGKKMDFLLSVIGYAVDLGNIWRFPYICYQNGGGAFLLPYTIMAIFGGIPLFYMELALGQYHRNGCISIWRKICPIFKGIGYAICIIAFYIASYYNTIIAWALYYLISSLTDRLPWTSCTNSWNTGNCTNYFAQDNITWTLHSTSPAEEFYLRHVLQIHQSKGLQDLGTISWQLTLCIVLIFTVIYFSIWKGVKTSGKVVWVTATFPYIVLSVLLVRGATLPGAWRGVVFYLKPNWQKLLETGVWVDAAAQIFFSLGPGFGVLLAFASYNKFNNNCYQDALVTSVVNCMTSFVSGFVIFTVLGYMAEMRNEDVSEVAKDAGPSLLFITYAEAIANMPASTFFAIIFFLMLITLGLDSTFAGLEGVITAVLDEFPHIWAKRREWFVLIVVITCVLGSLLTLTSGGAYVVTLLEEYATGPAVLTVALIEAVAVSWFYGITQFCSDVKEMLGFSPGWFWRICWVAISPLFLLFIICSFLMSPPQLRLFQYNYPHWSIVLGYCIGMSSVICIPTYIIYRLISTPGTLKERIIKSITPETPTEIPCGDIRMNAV
Experimental: (§1) The dissected tissues were separately homogenized in 20 volumes (cortical) or 40 volumes (striatal) of ice-cold, oxygenated HEPES buffer 0.32 M sucrose containing 11 mM glucose (pH 7.4) in a glass Potter-Elvehjem homogenizer with Teflon® pestle (8 strokes, 900 rpm). The homogenates were centrifuged at 1,000×g for 10 minutes. The resulting supernatant was decanted and further centrifuged at 20,000×g for 20 minutes at 4° C. […] The synaptosomal protein concentration was determined by using the BCA assay (Pierce Biotechnology Inc, Rockford, Ill.), according to the manufacturer's instructions. Synaptosomal protein (1.0-2.5 mg) was suspended in 1 mL oxygenated incubation buffer as defined above. Test amine compound was pre-incubated with the synaptosomal preparation for 30 minutes at 37° C. in a shaking water bath (80 oscillations/minute).

[2] = biological target: T3, rat norepinephrine transport, synaptosomal preparations (Rattus norvegicus, UniProt Q63380); assay: Inhibition of [3H]NE reuptake in rat brain synaptosomes (occipital cortex); assay type: biochemical
T3 construct: from tissue; host or cells: rat occipital cortex synaptosomes (male Sprague-Dawley)
T3 sequence (Q63380 1-617): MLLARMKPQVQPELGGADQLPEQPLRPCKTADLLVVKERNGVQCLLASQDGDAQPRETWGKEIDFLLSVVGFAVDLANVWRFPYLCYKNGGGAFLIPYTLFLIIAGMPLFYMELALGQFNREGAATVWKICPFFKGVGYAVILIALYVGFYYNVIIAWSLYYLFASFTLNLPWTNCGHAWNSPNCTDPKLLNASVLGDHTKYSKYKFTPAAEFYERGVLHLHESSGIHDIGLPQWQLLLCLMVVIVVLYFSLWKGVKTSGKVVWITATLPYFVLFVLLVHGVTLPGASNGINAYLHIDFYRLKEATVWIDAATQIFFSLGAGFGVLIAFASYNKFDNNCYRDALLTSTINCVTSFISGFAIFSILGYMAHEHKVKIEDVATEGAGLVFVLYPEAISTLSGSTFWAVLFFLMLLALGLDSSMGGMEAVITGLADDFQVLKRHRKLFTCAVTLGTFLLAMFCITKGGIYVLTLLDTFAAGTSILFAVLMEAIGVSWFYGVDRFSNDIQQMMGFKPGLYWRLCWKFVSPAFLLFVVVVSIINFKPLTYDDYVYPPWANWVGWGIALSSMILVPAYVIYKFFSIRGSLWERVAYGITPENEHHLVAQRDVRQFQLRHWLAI
Experimental: as §1

[3] = biological target: T4, rat dopamine transporter, synaptosomal preparations (Rattus norvegicus, UniProt P23977); assay: Inhibition of [3H]DA reuptake in rat brain synaptosomes (striatum); assay type: biochemical
T4 construct: and striatal tissues for transport of dopamine; from tissue; host or cells: rat striatum synaptosomes (male Sprague-Dawley)
T4 sequence (P23977 whole entry): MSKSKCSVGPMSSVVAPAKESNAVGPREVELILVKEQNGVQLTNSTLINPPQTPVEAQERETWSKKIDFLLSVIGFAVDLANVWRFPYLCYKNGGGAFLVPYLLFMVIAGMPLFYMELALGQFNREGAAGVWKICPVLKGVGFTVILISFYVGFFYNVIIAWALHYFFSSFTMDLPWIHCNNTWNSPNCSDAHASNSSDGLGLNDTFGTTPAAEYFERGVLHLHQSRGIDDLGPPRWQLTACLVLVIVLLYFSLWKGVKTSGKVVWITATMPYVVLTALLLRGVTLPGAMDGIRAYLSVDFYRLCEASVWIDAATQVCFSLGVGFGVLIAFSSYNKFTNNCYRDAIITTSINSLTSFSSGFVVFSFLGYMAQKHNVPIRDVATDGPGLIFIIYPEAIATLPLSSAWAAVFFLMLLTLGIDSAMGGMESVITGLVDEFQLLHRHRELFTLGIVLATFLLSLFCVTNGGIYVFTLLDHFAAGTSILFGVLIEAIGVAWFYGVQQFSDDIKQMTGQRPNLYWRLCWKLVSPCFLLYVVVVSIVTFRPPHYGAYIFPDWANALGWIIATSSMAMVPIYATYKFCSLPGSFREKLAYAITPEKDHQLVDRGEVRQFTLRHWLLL
Experimental: as §1

[4] = tested on: rat 5-HT, NE and DA transport, synaptosomal preparations; assay: Rat brain synaptosomal transport: rank order of potency; assay type: biochemical; conditions: from Ki values; S = 5HT, N = NE, D = DA
Experimental: as §1

Male Sprague-Dawley rats = assay: Forced swim test in rats; assay type: in vivo, rat; conditions: 5 mg/kg IP
Experimental: When rats are placed in a cylinder of water from which they cannot escape, they will remain immobile in the water for the majority of the test.
Water was changed between trials, and the procedure involved a pretest and a 5-minute test separated by 24 hours. During the pretest, rats (adapted to the experimental room for no less than one hour) were placed in the cylinder for 15 minutes. Following this initial exposure, the rats were dried with towels and transferred to a “drying cage” situated under a warming lamp. […] The following day, rats were transferred to the experimental room and acclimated for at least one hour.
The rat was considered immobile when floating motionless or making only those movements necessary to keep its head above the surface of the water. Scores for each behavior (swimming or immobility) were expressed as total counts per 5-minute session. Statistical analysis was performed using ANOVA followed by the Tukey test for post-hoc comparisons.

[5] = biological target: human norepinephrine transporter (Homo sapiens, UniProt P23975); assay: Inhibition of [3H]NE transport into HEK-293 cells expressing the human transporter
human norepinephrine transporter, sequence (P23975 whole entry): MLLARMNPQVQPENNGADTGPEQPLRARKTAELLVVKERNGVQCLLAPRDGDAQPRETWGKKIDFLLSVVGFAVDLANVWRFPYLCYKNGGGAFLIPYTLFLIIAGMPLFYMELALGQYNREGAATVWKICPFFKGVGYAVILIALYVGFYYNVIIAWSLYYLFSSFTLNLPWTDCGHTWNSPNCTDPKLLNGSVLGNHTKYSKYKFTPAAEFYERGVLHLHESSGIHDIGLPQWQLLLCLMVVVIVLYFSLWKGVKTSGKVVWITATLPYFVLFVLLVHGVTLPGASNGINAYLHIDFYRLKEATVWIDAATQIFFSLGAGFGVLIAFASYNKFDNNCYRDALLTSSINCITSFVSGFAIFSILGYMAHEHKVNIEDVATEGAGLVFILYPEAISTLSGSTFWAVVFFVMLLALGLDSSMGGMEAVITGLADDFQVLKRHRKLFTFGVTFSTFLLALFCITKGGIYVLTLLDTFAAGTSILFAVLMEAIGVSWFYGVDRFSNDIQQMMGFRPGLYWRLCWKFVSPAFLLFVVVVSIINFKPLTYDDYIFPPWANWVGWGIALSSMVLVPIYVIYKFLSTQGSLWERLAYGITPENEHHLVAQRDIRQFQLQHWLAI

[6] = biological target: human serotonin transporter (Homo sapiens, UniProt P31645); assay: Inhibition of [3H]5-HT transport into HEK-293 cells expressing the human transporter
human serotonin transporter, sequence (P31645 whole entry): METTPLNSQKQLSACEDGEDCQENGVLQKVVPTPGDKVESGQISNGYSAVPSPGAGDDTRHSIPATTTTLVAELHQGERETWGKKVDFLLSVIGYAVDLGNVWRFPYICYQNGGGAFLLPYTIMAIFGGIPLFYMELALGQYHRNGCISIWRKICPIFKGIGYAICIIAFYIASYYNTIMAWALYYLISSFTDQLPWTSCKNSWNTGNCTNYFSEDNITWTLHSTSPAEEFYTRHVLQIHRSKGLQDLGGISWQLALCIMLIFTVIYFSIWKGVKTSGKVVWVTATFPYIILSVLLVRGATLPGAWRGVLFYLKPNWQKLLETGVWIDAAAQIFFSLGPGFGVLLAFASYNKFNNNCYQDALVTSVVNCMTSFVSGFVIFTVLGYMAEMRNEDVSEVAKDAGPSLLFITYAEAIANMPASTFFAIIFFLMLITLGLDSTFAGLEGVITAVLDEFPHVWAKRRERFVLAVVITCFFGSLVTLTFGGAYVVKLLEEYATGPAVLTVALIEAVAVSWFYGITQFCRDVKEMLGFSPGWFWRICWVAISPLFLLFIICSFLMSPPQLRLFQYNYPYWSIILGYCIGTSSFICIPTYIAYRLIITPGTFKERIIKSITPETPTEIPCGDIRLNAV

mice = assay: Locomotor activity in motility chamber, mice; assay type: in vivo, mouse; conditions: 5 mg/kg IP, 10 minute intervals for 3 hours, FIG. 11

Row | SMILES | Potency (rank-order of potency of binding; S = hSERT, N = hNET, D = hDAT) (hSERT, hNET, hDAT) | Potency (rank-order of potency of binding; S = hSERT, N = hNET, D = hDAT) (hSERT, hNET, hDAT; listed as PRC200) | Potency Range (difference between most potent and least potent binding) (hSERT, hNET, hDAT; ratio of KD over hSERT, hNET, hDAT) | IC50 (CYP2D6) | IC50 (hERG) | Ki [1] | Ki [2] | Ki [3] | Potency (rank order, transport into rat brain synaptosomal preparations) [4] | Immobility in forced swim test vs saline (Male Sprague-Dawley rats) | Swimming in forced swim test vs saline (Male Sprague-Dawley rats) | Antidepressant activity in forced swim test compared with imipramine (15 mg/kg IP) (Male Sprague-Dawley rats; FIG. 12A) | Ki [5] | Ki [6] | Effect on locomotor activity (mice)
1 | CNC[C@H](c1ccc2ccccc2c1)[C@H](O)c1ccccc1 [PRC200-SS, (1S,2S)-3-(methylamino)-2-(naphthalen-2-yl)-1-phenylpropan-1-ol, reference compound] | N > S > D | N>S>D | 45 fold | 80 nM | 32600 nM | 2.12 ± 0.9 nM | 6 ± 2 nM | 61 ± 4 nM | S > N > D | statistically (P<0.04) less immobility | statistically (P<0.04) more swimming behavior | antidepressant activity that was similar to that observed in rats treated with the positive control | 6 ± 2 nM | 2.8 ± 0.4 nM | –
2 | C[C@H](N)Cc1ccccc1 [d-amphetamine, reference compound] | – | – | – | – | – | – | – | – | – | – | – | – | – | – | caused a significant effect on locomotor activity
